Measured values as given in US9155752B2, “Liver function-improving agent” (UENO FINE CHEMICALS INDUSTRY, LTD., priority 2012, dated 2015).
Entries after “also recorded” stand apart in the source; their conditions may differ.

Tests used:
[1] = test system: C57BL/6 male mice fed high fat diet; assay: Fat vacuoles in hepatocytes, HE-stained liver tissue (Test Example 2); type: in vivo; details: for Fat vacuole area, Significant difference: 1% level; for Fat vacuole area (Mean ± Standard error): 8 weeks
Experimental: The following test was carried out in the same manner as in Test Example 1 for (1) test animal, (2) diet, and (3) preparation of sample. The diet and the sample water (test substance aqueous solution or distilled water) listed in Table 1 were administered to mice in each group and the animals were fed for 8 weeks. After 8-week test feeding, pentobarbital of 100 mg/kg of body weight was intraperitoneally administered to mice, and the mice were euthanized, and then liver was excised. The liver tissue excised from mice was stained with hematoxylin-eosin (HE) and a specimen observation under a microscope was carried out. Moreover, the results of microscopic observation were analyzed by the following method and a significant difference was evaluated by the t-test. […] This photographing was performed for four mice per group to obtain 16 microscopic images in total per group. At first, stained parts such as cytoplasm and nucleus in hepatocytes were selected by the image analysis. Then fat vacuole parts were selected by color inversion and the number of pixels for the selected fat vacuole parts was considered as a fat vacuole area. In the analysis, Dynamic Cell Count software accompanying fluorescence microscope BZ-9000 was used.

NASH mice = assay: F4/80 immunostaining of liver, inflammation area % (Test Example 3); type: in vivo; details: for Inflammation area %, Significant difference: Bonferroni, 5% level, tendency at 10% level; for Inflammation area % (F4/80 immunostaining), mean ± standard deviation: 8 weeks of age
Source text: A solid diet CE-2 (lipid 4.6% by weight, manufactured by CLEA Japan, Inc.) was used as a normal diet. A solid diet, High Fat Diet 32 (lipid 32.0% by weight, sucrose 6.75% by weight, manufactured by CLEA Japan, Inc.), was used as a sucrose-containing high fat diet. As a maltitol-containing high-fat diet, a special diet (lipid 32.0% by weight, maltitol 6.08% by weight; manufactured by CLEA Japan, Inc.) obtained by replacing the total amount (6.75% by weight) of sucrose in a solid diet, High Fat Diet 32, with powdered maltitol (Whole Crystalline Maltitol Ueno 60M (purity of maltitol: 90%), manufactured by Ueno Fine Chemicals Industry Ltd.) was used. Sodium hypochlorite (PURELOX-S, manufactured by OYALOX Co., Ltd.) was added to pure water prepared by Elix-UV pure water producing apparatus, to a final concentration of 0.00009%, so that pure water for use in the test was obtained. An aqueous maltitol solution was prepared by dissolving powdered maltitol (Whole Crystalline Maltitol Ueno 60M (purity of maltitol: 90%), manufactured by Ueno Fine Chemicals Industry Ltd.) in pure water to a concentration of 1.8% (weight/volume). The purity of maltitol in the aqueous maltitol solution was 1.62%. Twenty-one female SPF mice (C57BL/6J, produced by CLEA Japan, Inc.) on day 14 of pregnancy were purchased and acclimation was performed. All animals were allowed to make a natural birth and a born male was used to produce a model. In addition, the weaning was at 4 weeks after birth. Streptozotocin (Sigma-Aldrich Japan K.K.) was adjusted to a concentration of 10 mg/mL with a physiological saline solution (manufactured by Otsuka Pharmaceutical Factory, Inc.) and the solution was subcutaneously administered once to the back of 2-day-old male mice at a dose of 20 μL/mouse (200 μg/mouse). Afterwards, the mother animal took care of the baby until weaning. The weaning was on day 28±2 after birth. After the weaning, a normal diet was supplied ad libitum to animals receiving no streptozotocin (normal mice (group S1 and group 1)), and a sucrose-containing high fat diet was supplied ad libitum to animals receiving streptozotocin (NASH mice (group S2, group 2, group 3, and group 4). A normal diet was supplied ad libitum to normal mice (group 1). With respect to NASH mice, a sucrose-containing high fat diet was supplied ad libitum to the sucrose group (group 2), and a maltitol-containing high fat diet was supplied ad libitum to the maltitol-low dose group (group 3) and the maltitol-high dose group (group 4). An aqueous maltitol solution was supplied ad libitum only to the maltitol-high dose group (group 4) of 5 to 8 weeks of age, and pure water was supplied ad libitum to the groups other than group 4 of 5 to 8 weeks of age. Six male animals per group were assigned to groups S1 and S2, reared up to 5 weeks of age, and then necropsied. Eight male animals per group were assigned to groups 1, 2, 3 and 4, reared up to 8 weeks of age, and then necropsied. At scheduled necropsy of the animals of 5 or 8 weeks of age, all individuals were anesthetized with diethyl ether (manufactured by Sigma-Aldrich Japan K.K.) and a needle through which heparin sodium (Novo Heparin Injection 1000, manufactured by Mochida Pharmaceutical Co., Ltd.) had been passed was punctured to the heart to aspirate the whole blood, leading to euthanasia, followed by harvest of the organ. […]

[2] = Group 4: high fat diet + 2.25% aqueous maltitol solution
[3] = Group 5: high fat diet + 4.5% aqueous maltitol solution
[4] = Group 3: high fat diet + 2.5% aqueous sucrose solution

| Compound | Fat vacuole area, Significant difference ([1]; Group 4 (2.25% maltitol solution) relative to group 2 (high fat diet + distilled water)) | Fat vacuoles in microscopic observation [1, 2] | Fat vacuole area (Mean ± Standard error) [1, 2] [pixel] | Fat vacuole area, Significant difference ([1]; Group 5 (4.5% maltitol solution) relative to group 2 (high fat diet + distilled water)) | Fat vacuoles in microscopic observation [1, 3] | Fat vacuole area (Mean ± Standard error) [1, 3] [pixel] | Inflammation area %, Significant difference (NASH mice; Group 3 (low-dose maltitol) vs sucrose group (group 2)) | Inflammation area % (F4/80 immunostaining), mean ± standard deviation (NASH mice; Group 3, low-dose maltitol: HFD32-M (maltitol 6.08%) + pure water) [%] | Inflammation area %, Significant difference (NASH mice; Group 4 (high-dose maltitol) vs sucrose group (group 2)) | Inflammation area % (F4/80 immunostaining), mean ± standard deviation (NASH mice; Group 4, high-dose maltitol: HFD32-M (maltitol 6.08%) + aqueous maltitol solution 1.62%) [%] | Fat vacuole area, Significant difference ([1]; Group 3 (2.5% sucrose solution) relative to group 2 (high fat diet + distilled water)) | Fat vacuoles in microscopic observation [1, 4] | Fat vacuole area (Mean ± Standard error) [1, 4] [pixel] | Inflammation area % (F4/80 immunostaining), mean ± standard deviation (NASH mice; Group 2, sucrose group: HFD32 (sucrose 6.75%) + pure water) [%] |
| --- | --- | --- | --- | --- | --- | --- | --- | --- | --- | --- | --- | --- | --- | --- |
| OC[C@@H](O)[C@@H](O[C@H]1O[C@H](CO)[C@@H](O)[C@H](O)[C@H]1O)[C@H](O)[C@@H](O)CO [maltitol] | significantly smaller and Yes | few fat vacuoles were observed | 256145 ± 29037 | significantly smaller and Yes | few fat vacuoles were observed | 264982 ± 16387 | No significant difference and No | 3.04 ± 1.55 | tendency to be low; also recorded: Tendency to be different | 2.46 ± 0.44 |  |  |  |  |
| OC[C@H]1O[C@@](CO)(O[C@H]2O[C@H](CO)[C@@H](O)[C@H](O)[C@H]2O)[C@@H](O)[C@@H]1O [sucrose, reference compound] |  |  |  |  |  |  |  |  |  |  | No | reduction of the fat vacuoles is limited | 306930 ± 28549 | 3.28 ± 0.95 |
